“And” between values parts separate entries of the source, which are not always exact repeats. Identical values can stand only once.
Test: Solubility assessment as a function of HPβCD concentration
Format: physicochemical
Description: Solubility studies were performed by the addition of a known mass of 5(6)-methoxy-2-[[(4-methoxy-3,5-dimethyl-2-pyridinyl)-methyl]sulfinyl]-1H- benzimidazole and/or HPβCD to a given volume of solvent system. Solubilities were determined by observation, as the maximum concentration at which 5(6)-methoxy-2-[[(4-methoxy-3,5-dimethyl-2-pyridinyl)-methyl]sulfinyl]-1H- benzimidazole completely dissolved. Additionally, concentrations of 5(6)-methoxy-2-[[(4-methoxy-3,5-dimethyl-2-pyridinyl)-methyl]sulfinyl]-1H- benzimidazole and HPβCD at set molar ratios were solubilized in systems of high pH (adjusted as high as 12.2, with 1N NaOH), the pH was adjusted (using 2N HCl) in a stepwise downward manner until precipitation occurred.
The solubility of 5(6)-methoxy-2-[[(4-methoxy-3,5-dimethyl-2-pyridinyl)-methyl]sulfinyl]-1H- benzimidazole was assessed as a function of HPβCD concentration in water.
The procedure according to Example 86 was repeated except that water with a borate buffer (pH of 8) was employed.
The procedure according to Example 86 was repeated except that water with a phosphate buffer (pH of 11) was employed.

In the case of `COc1ccc2[nH]c([S+]([O-])Cc3ncc(C)c(OC)c3C)nc2c1` (stereo not drawn) [5(6)-methoxy-2-[[(4-methoxy-3,5-dimethyl-2-pyridinyl)-methyl]sulfinyl]-1H-benzimidazole], the “dependence of solubility on HPβCD concentration” value (water with a borate buffer (pH of 8)) is reported as “increase linearly as a function of HPβCD concentration”, the “dependence of solubility on HPβCD concentration” value (water with a phosphate buffer (pH of 11)) is reported as “increase linearly as a function of HPβCD concentration” and the solubility (water, read-out: aqueous solubility in water) is reported as ~300 µg/mL and ~900 µM.
